Results published in patent US20230124862A1, “BISMUTH THIOL COMPOUNDS AND COMPOSITIONS AND METHODS OF TREATING MICROBIAL CO-INFECTIONS” (Microbion Corporation, priority 2020, published 2023).
Values after ≈ are worked out from the molar mass of the structure shown. Read-outs that look alike come from different tables or passages of the source.

Tests used:
[1] = system: C. parapsilosis ATCC 22019; test: Antifungal broth microdilution (Example 13), QC organism; assay type: cell-based, Candida parapsilosis; settings: 24 hr, first of two values x/y (footnote b not given, presumably MIC2)
Escherichia coli = test: Broth microdilution MIC (Example 12); assay type: cell-based
Enterobacteriaceae = test: Broth microdilution MIC (Example 11); assay type: cell-based, E. coli, K. pneumoniae, Enterobacter cloacae
[2] = system: Burkholderia cepacia complex; assay type: cell-based, Burkholderia spp.; settings: initial MIC testing
[3] = system: Gram-negative organisms (P. aeruginosa, E. coli, A. baumannii, H. influenzae); test: Broth microdilution MIC with pulmonary surfactant (Survanta); assay type: cell-based; settings: evaluated organisms, 1-10% Survanta
[4] = assay type: in vivo, F344 rats; settings: rat, inhalation
Experimental: Inhalation Exposure: The initial exposure of BisEDT (Bismuth-1,2-ethanedithiol) was formulated as a […] at 100 mg/mL in suspension in 0.5% Tween 80, 10 mM sodium phosphate, pH 7.4, in NaCl (adjusted to approximately 300 mOsm). Aerosols were generated with a commercial compressed air jet nebulizer, Pad LC Plus, operated with an inlet pressure of 20 psi. The aerosols were transitioned into a rodent nose-only inhalation exposure system. The exposure system was operated with an inlet air flow of −5.2 L/min and an exhaust air flow of −5 L/min.

CC(S)C(C)S.[Bi] (stereo not drawn) [BisBDT, bismuth-2,3-butanedithiol]
MIC 24 hr [1]: 1 µg/mL

C[C@@H](O)[C@H]1C(=O)N2C(C(=O)O)=C(S[C@@H]3CN[C@H](C(=O)N(C)C)C3)[C@H](C)[C@H]12 [MEM]
MIC (Escherichia coli; E. coli ATCC 25922, ATCC QC organism (Table 102)): ≤0.008 µg/mL
MIC (Escherichia coli; E. coli ATCC 35218, ATCC QC organism (Table 102)): ≤0.008 µg/mL
MIC (Escherichia coli; E. coli ATCC 35218, ESBL): ≤0.008 µg/mL
MIC (Escherichia coli; E. coli ATCC BAA-2471, NDM): >8 µg/mL
MIC (Escherichia coli; E. coli CDC 114, ESBL/KPC): 2 µg/mL (≈ 5.22 µM)
MIC (Escherichia coli; E. coli CDC 118, ESBL/NDM): 0.06 µg/mL (≈ 0.156 µM)
MIC (Escherichia coli; E. coli CDC 435, NDM): >8 µg/mL
MIC (Escherichia coli; E. coli CDC 451, KPC): 1 µg/mL (≈ 2.61 µM)
MIC (Escherichia coli; E. coli CDC 503, ESBL/NDM): 8 µg/mL (≈ 20.9 µM)
MIC (Escherichia coli; E. coli MMX 5745, KPC): 2 µg/mL (≈ 5.22 µM)
MIC (Escherichia coli; E. coli MMX 5755, ESBL): 0.015 µg/mL (≈ 0.0391 µM)
MIC (Escherichia coli; E. coli MMX 5756, ESBL): ≤0.008 µg/mL
MIC (Escherichia coli; E. coli MMX 5758, ESBL): ≤0.008 µg/mL
MIC (Enterobacteriaceae; E. cloacae (MMX 5981), NDM-1, LVX-R, MEM-R, CAZ-R, GEN-R): >64 µg/mL
MIC (Enterobacteriaceae; E. coli (MMX 102), QC): 0.03 µg/mL (≈ 0.0782 µM)
MIC (Enterobacteriaceae; E. coli (MMX 5980), NDM-1, LVX-R, MEM-R, CAZ-R, GEN-R): 32 µg/mL (≈ 83.4 µM)
MIC (Enterobacteriaceae; E. coli (MMX 8423), ESBL, LVX-R, CAZ-R, GEN-R): 0.03 µg/mL (≈ 0.0782 µM)
MIC (Enterobacteriaceae; E. coli (MMX 8424), ESBL, CAZ-R): 0.03 µg/mL (≈ 0.0782 µM)
MIC (Enterobacteriaceae; E. coli (MMX 8425), ESBL, LVX-R, CAZ-R, GEN-R): 0.015 µg/mL (≈ 0.0391 µM)
MIC (Enterobacteriaceae; K. pneumoniae (MMX 4622), KPC-2, MEM-R, CAZ-R): >64 µg/mL
MIC (Enterobacteriaceae; K. pneumoniae (MMX 4623), KPC-2, MEM-R, CAZ-R, GEN-R): >64 µg/mL
MIC (Enterobacteriaceae; K. pneumoniae (MMX 4653), KPC-3, LVX-R, MEM-R, CAZ-R): >64 µg/mL
MIC (Enterobacteriaceae; K. pneumoniae (MMX 4683), KPC-2, LVX-R, MEM-R, CAZ-R): 32 µg/mL (≈ 83.4 µM)
MIC (Enterobacteriaceae; K. pneumoniae (MMX 4684), ESBL, MEM-R): 8 µg/mL (≈ 20.9 µM)
MIC (Enterobacteriaceae; K. pneumoniae (MMX 4685), ESBL, LVX-R, MEM-R, CAZ-R): 4 µg/mL (≈ 10.4 µM)
MIC (Enterobacteriaceae; K. pneumoniae (MMX 4694), KPC-3, LVX-R, MEM-R, CAZ-R): 32 µg/mL (≈ 83.4 µM)
MIC (Enterobacteriaceae; K. pneumoniae (MMX 5979), NDM-1, LVX-R, MEM-R, CAZ-R, GEN-R): >64 µg/mL
MIC ([2]; B. cenocepacia isolate 0548 (CIP-R)): 4 µg/mL (≈ 10.4 µM)
MIC ([2]; B. cenocepacia isolate 0813 (CPI-I)): 2 µg/mL (≈ 5.22 µM)
MIC ([2]; B. cenocepacia isolate 1631): 4 µg/mL (≈ 10.4 µM)
MIC ([2]; B. cenocepacia isolate 1783): 4 µg/mL (≈ 10.4 µM)
MIC ([2]; B. cenocepacia isolate 8555): 4 µg/mL (≈ 10.4 µM)
MIC ([2]; B. cepacia isolate 0546): 4 µg/mL (≈ 10.4 µM)
MIC ([2]; B. cepacia isolate 0547): 2 µg/mL (≈ 5.22 µM)
MIC ([2]; B. cepacia isolate 1793): 4 µg/mL (≈ 10.4 µM)
MIC ([2]; B. cepacia isolate 1794): 4 µg/mL (≈ 10.4 µM)
MIC ([2]; B. cepacia isolate 9040): 4 µg/mL (≈ 10.4 µM)
MIC ([2]; B. multivorans isolate 1580 (CIP-R)): 2 µg/mL (≈ 5.22 µM)
MIC ([2]; B. multivorans isolate 1791): 4 µg/mL (≈ 10.4 µM)
MIC ([2]; B. multivorans isolate 1795 (MEM-I, CIP-R)): 8 µg/mL (≈ 20.9 µM)
MIC ([2]; B. multivorans isolate 5665 (CIP-I)): 2 µg/mL (≈ 5.22 µM)
MIC ([2]; B. multivorans isolate 8952 (CIP-I)): 2 µg/mL (≈ 5.22 µM)

C1C[S][Bi]([S]CC[S][Bi]2[S]CC[S]2)[S]1 [BisEDT, Bismuth-1,2-ethanedithiol]
effect of Survanta addition on MIC values [3]: largely unaffected
Mean BisEDT Conc, whole blood ([4]; dose 47 μg/kg, 8 hr): 114 ng/mL
Mean BisEDT Conc, whole blood ([4]; dose 47 μg/kg, 12 hr): 98 ng/mL
Mean BisEDT Conc, whole blood ([4]; dose 47 μg/kg, 24 hr): 282 ng/mL
Mean BisEDT Conc, whole blood ([4]; dose 47 μg/kg, 30 hr): 373 ng/mL
Mean BisEDT Conc, whole blood ([4]; dose 124 μg/kg, 8 hr): 247 ng/mL
Mean BisEDT Conc, whole blood ([4]; dose 124 μg/kg, 12 hr): 187 ng/mL
Mean BisEDT Conc, whole blood ([4]; dose 124 μg/kg, 24 hr): 571 ng/mL
Mean BisEDT Conc, whole blood ([4]; dose 124 μg/kg, 30 hr): 668 ng/mL
Mean BisEDT Conc, whole blood ([4]; dose 400 μg/kg, 8 hr): 1701 ng/mL
Mean BisEDT Conc, whole blood ([4]; dose 400 μg/kg, 12 hr): 1252 ng/mL
Mean BisEDT Conc, whole blood ([4]; dose 400 μg/kg, 24 hr): 2700 ng/mL
Mean BisEDT Conc, whole blood ([4]; dose 400 μg/kg, 30 hr): 2738 ng/mL
Mean BisEDT Conc, whole blood ([4]; dose 3000 μg/kg, 1 hr): 485 ng/mL
Mean BisEDT Conc, whole blood ([4]; dose 3000 μg/kg, 2 hr): 2504 ng/mL
Mean BisEDT Conc, whole blood ([4]; dose 3000 μg/kg, 8 hr): 6570 ng/mL
Mean BisEDT Conc, whole blood ([4]; dose 3000 μg/kg, 24 hr): 20525 ng/mL
